Assay results reported in patent US20240287081A1, “PERFLUOROALKANE SUBSTITUTED PYRAZOLO[3,4-D]PYRIMIDIN AND PYRROLO[2,3-D]PYRIMIDIN COMPOUNDS AND USES THEREOF” (ICAHN SCHOOL OF MEDICINE AT MOUNT SINAI, priority 2021, published 2024).
“Also recorded” adds a separate entry of the source.

Legend:
[1] = test system: HCC tumor organoids, SR (sorafenib resistant); assay: 3D HCC tumor organoid viability, SR model; type: cell-based; settings: 5.0 μM, viability three days post drug administration
Experimental: (§1) For assays in HCC tumor organoids, 96 well plates were first coated with a 50:50 solution of basal media:Matrigel ([…]), which polymerized for 15 minutes at 37° C. Tumor organoids were taken out of Matrigel, broken, and washed. Tumor organoids were seeded at 1,000 cells per well and were treated the following day with single doses of drugs in technical triplicate. Final DMSO concentrations were kept below 0.5%. Cell viability was measured three days post drug administration with either luminescence from CellTiter-Glo or absorbance at 560 and 590 nm from resazurin. Viability data was analyzed by normalizing individual drug-treated well values to DMSO-treated wells (BC=B-Catenin; SR=sorafenib resistant). Results of 3D HCC cell line data for pyrazolo- and pyrrolopyrimidine compounds at 0.5 μm (FIGS. 22A-F), 0.05 μm (FIGS. 23A-F), and 5.0 μm (FIGS. 24A-F) were obtained. […] In the BC model, at 5.0 μM, the top ten compounds were: APS-8-100-4, APS-8-52-3, APS-8-51-4, APS-7-25-2, APS-8-100-3, APS-8-51-3, APS-8-50-4, APS-8-52-4, and APS-7-38. In the SR model, at 5.0 μM, the top ten compounds were: APS-8-51-3, APS-8-50-4, APS-8-51-4, APS-8-52-3, APS-8-50-3, APS-7-52-2, APS-8-52-4, APS-7-52-1, and APS-8-100-4.

[2] = test system: HCC tumor organoids, BC (B-Catenin); assay: 3D HCC tumor organoid viability, BC model; type: cell-based; settings: 5.0 μM, viability three days post drug administration
Experimental: as §1

[3] = test system: RET (WT and M918T); assay: NanoBRET cell based target engagement assay; settings: RET-Nluc in HEK 293T cells; for cellular IC50 against RET, ranking in words: pyrazolo- and pyrrolopyrimidine series
Experimental: Assays were completed in duplicate. […] FIG. 8D is a graph of the cell-based target engagement for the indicated compounds against wild-type and M918T RET. IC50 values were determined based on 8-point titration curves of free ligand. Competition assays were completed in technical triplicate against full-length human RET-Nluc expressed in 293T cells, complexed with an active-site fluorescent tracer.
In this assay, a bioluminescence resonance energy transfer (BRET) signal is generated between nanoLuciferase tagged RET (expressed in HEK 293T cells) and an active-site based fluorescent tracer. […] Using this assay, in vivo binding was determined for a series of compounds against mutant (M918T) and wild-type RET (FIG. 8D).

[4] = test system: panel of 468 purified human kinases; assay: In vitro kinase percent inhibition, panel of 468 kinases (DiscoverX); type: binding; settings: 1 μM; for binding to wild-type RET and RET^M918T, in words: kinase panel; for binding profile / selectivity across the kinome, in words: panel of 468 kinases
Experimental: Compounds were assayed against a panel of 468 purified human kinases (DiscoverX) to measure percentage inhibition values and derive kinome profiles (FIGS. 3B-3C). All compounds were screened at 1 μM, using two experimental replicates to determine percent inhibition values. Detailed procedures for kinase reactions and assay formats are described at http://www.discoverx.com. Raw data sets for individual compounds were filtered based on the variance of experimental replicates (cutoff=average variance+standard deviation).

[5] = test system: ptc>dRet^M955T flies; assay: Fly rescue assay (Drosophila MTC model ptc>dRet^M955T); type: in vivo; settings: compound in fly food; for rescue (percent viability of adult flies, adults/pupae×100): 13 d at 25° C.
Experimental: Kinase-mutated fly stocks were obtained from Bloomington Drosophila Stock Center (BDSC; Bloomington, IN). The active mutant form of Drosophila Ret (dRet^955T) carries an M955T mutation corresponding to the M918T mutation commonly reported for multiple endocrine neoplasia (MEN) type 2B patients12,14,16,34. The ptc-gal4, UAS-GFP;UAS-dRet^M955T/SM5tub-gal80-TM6B transgenic flies were prepared according to standard protocols and crossed with non-transgenic w-flies (BDSC) to generate ptc-gal4, UAS-GFP; UAS-dRet^M955T(ptc>dRet^M955T) flies for chemical screening.
All drugs were synthesized in-house. All compounds were dissolved in DMSO (Sigma-Aldrich; St. Louis, MO) and mixed with semi-defined fly medium (BDSC) to make drug food (0.1% final DMSO concentration). For drug screening, ptc>dRet^M955T embryos were raised until adulthood on drug food for 13 d at 25° C. The number of empty pupal cases (i.e., adults) ? that of total pupal cases (P) to determine % viability. Fly randomization was used throughout the assays.
In this model, compounds are assessed based on their ability to suppress oncogenic Ret^M955T-induced tumors, which can be quantified as ‘rescue’ from lethality. […] The baseline viability of ptc>Ret^1955T flies was calibrated to zero, which creates a high bar for rescue but also reduces false-positive hits. Hundreds of flies are tested per condition (typical n values are […] administered through fly food.

CC(C)n1nc(-c2ccc(NC(=O)Nc3cccc(C(F)(F)C(F)(F)C(F)(F)F)c3)cc2)c2c(N)ncnc21.O=C(O)C(F)(F)F [APS-7-52-1, 1-(4-(4-Amino-1-isopropyl-1H-pyrazolo[3,4-d]pyrimidin-3-yl)phenyl)-3-(3-(perfluoropropyl)phenyl)urea 2,2,2-trifluoroacetate]
ranking by inhibition of cell proliferation, SR model [1]: top ten

CC(C)n1cc(-c2ccc(NC(=O)Nc3ccc(C(F)(C(F)(F)F)C(F)(F)F)cc3)cc2)c2c(N)ncnc21 [APS-8-50-4, 1-(4-(4-Amino-7-isopropyl-7H-pyrrolo[2,3-d]pyrimidin-5-yl)phenyl)-3-(4-(perfluoropropan-2-yl)phenyl)urea]
ranking by inhibition of cell proliferation, SR model [1]: top ten | ranking by inhibition of cell proliferation, BC model [2]: top ten

CC(C)n1cc(-c2ccc(NC(=O)Nc3ccc(C(F)(F)C(F)(F)C(F)(F)C(F)(F)F)cc3)cc2)c2c(N)ncnc21 [APS-8-52-4, 1-(4-(4-Amino-7-isopropyl-7H-pyrrolo[2,3-d]pyrimidin-5-yl)phenyl)-3-(4-(perfluorobutyl)phenyl)urea]
ranking by inhibition of cell proliferation, SR model [1]: top ten | ranking by inhibition of cell proliferation, BC model [2]: top ten

CC(C)n1nc(-c2ccc(NC(=O)Nc3cccc(C(F)(C(F)(F)F)C(F)(F)C(F)(F)F)c3)cc2)c2c(N)ncnc21 (stereo not drawn) [APS-8-56-3, 1-(4-(4-Amino-1-isopropyl-1H-pyrazolo[3,4-d]pyrimidin-3-yl)phenyl)-3-(3-(perfluorobutan-2-yl)phenyl)urea 2,2,2-trifluoroacetate]
cellular IC50 against RET, ranking in words [3]: highest IC50 values

CC(C)n1nc(-c2ccc(NC(=O)Nc3ccc(C(F)(C(F)(F)F)C(F)(F)F)cc3)cc2)c2c(N)ncnc21 [APS-8-50-3, 1-(4-(4-Amino-1-isopropyl-1H-pyrazolo[3,4-d]pyrimidin-3-yl)phenyl)-3-(4-(perfluoropropan-2-yl)phenyl)urea]
ranking by inhibition of cell proliferation, SR model [1]: top ten

CC(C)n1cc(-c2ccc(NC(=O)Nc3cc(C(F)(C(F)(F)F)C(F)(F)F)ccc3F)cc2)c2c(N)ncnc21 [APS-7-25-2, 1-(4-(4-Amino-7-isopropyl-7H-pyrrolo[2,3-d]pyrimidin-5-yl)phenyl)-3-(2-fluoro-5-(perfluoropropan-2-yl)phenyl)urea]
ranking by inhibition of cell proliferation, BC model [2]: top ten

CC(C)n1nc(-c2ccc(NC(=O)Nc3ccc(C(F)(C(F)(F)F)C(F)(F)C(F)(F)F)cc3)cc2)c2c(N)ncnc21 (stereo not drawn) [APS-8-6-2, 1-(4-(4-Amino-1-isopropyl-1H-pyrazolo[3,4-d]pyrimidin-3-yl)phenyl)-3-(4-(perfluorobutan-2-yl)phenyl)urea]
cellular IC50 against RET, ranking in words [3]: highest IC50 values | binding to wild-type RET and RET^M918T, in words [4]: more potent than 43 on wild-type and mutant RET | binding to wild-type RET and RET^M918T, in words ([4]; listed as 8-6-2): highly potent on both wild-type and RET^M918T | binding profile / selectivity across the kinome, in words [4]: generally promiscuous KI | binding profile / selectivity across the kinome, in words ([4]; listed as 8-6-2): overall selectivity profile in between 4-9-8 and 8-82-1 | rescue activity in the fly model, in words [5]: one of the highest rescues in the MTC fly assay; also recorded: exceptional in vivo activity | rescue (percent viability of adult flies, adults/pupae×100) ([5]; baseline viability 0%, listed as 65): 99%

CC(C)n1nc(-c2ccc(NC(=O)Nc3cc(C(F)(F)C(F)(F)F)ccc3F)cc2)c2c(N)ncnc21 [APS-5-86-2, 1-(4-(4-Amino-1-isopropyl-1H-pyrazolo[3,4-d]pyrimidin-3-yl)phenyl)-3-(2-fluoro-5-(perfluoroethyl)phenyl)urea]
cellular IC50 wild-type RET versus M918T mutant, in words [3]: not observed | rescue (percent viability of adult flies, adults/pupae×100) ([5]; baseline viability 0%): 92%

CO[C@]1(C(=O)N[C@@H](C)c2ccc(-n3cc(F)cn3)nc2)CC[C@H](c2nc(C)cc(Nc3cc(C)[nH]n3)n2)CC1 [Blu667, reference compound]
cellular IC50 wild-type RET versus M918T mutant, in words [3]: slightly lower IC50 values towards wild-type RET over the M918T mutant

CNC(=O)c1cc(Oc2ccc(NC(=O)Nc3ccc(Cl)c(C(F)(F)F)c3)c(F)c2)ccn1 [regorafenib, reference compound]
cellular IC50 wild-type RET versus M918T mutant, in words [3]: slightly lower IC50 values towards wild-type RET over the M918T mutant

CC(C)n1cc(-c2ccc(NC(=O)Nc3cc(C(F)(F)C(F)(F)F)ccc3F)cc2)c2c(N)ncnc21 [APS-7-38, 1-(4-(4-Amino-7-isopropyl-7H-pyrrolo[2,3-d]pyrimidin-5-yl)phenyl)-3-(2-fluoro-5-(perfluoroethyl)phenyl)urea]
ranking by inhibition of cell proliferation, BC model [2]: top ten

CC(C)n1nc(-c2ccc(NC(=O)Nc3ccc(C(F)(F)C(F)(F)C(F)(F)C(F)(F)F)cc3)cc2)c2c(N)ncnc21 [APS-8-52-3, 1-(4-(4-Amino-1-isopropyl-1H-pyrazolo[3,4-d]pyrimidin-3-yl)phenyl)-3-(4-(perfluorobutyl)phenyl)urea]
ranking by inhibition of cell proliferation, SR model [1]: top ten | ranking by inhibition of cell proliferation, BC model [2]: top ten

CC(C)n1cc(-c2ccc(NC(=O)Nc3ccc(C(F)(C(F)(F)F)C(F)(F)C(F)(F)F)cc3)cc2)c2c(N)ncnc21 (stereo not drawn) [APS-8-82-2, 1-(4-(4-Amino-7-isopropyl-7H-pyrrolo[2,3-d]pyrimidin-5-yl)phenyl)-3-(4-(perfluorobutan-2-yl)phenyl)urea 2,2,2-trifluoroacetate]
cellular IC50 against RET, ranking in words [3]: highest IC50 values | rescue activity in the fly model, in words [5]: exceptional in vivo activity | rescue (percent viability of adult flies, adults/pupae×100) ([5]; baseline viability 0%, 2,2,2-trifluoroacetate): 100%

CC(C)n1nc(-c2ccc(NC(=O)Nc3ccc(C(F)(F)C(F)(F)F)cc3)cc2)c2c(N)ncnc21 [APS-8-100-3, 1-(4-(4-Amino-1-isopropyl-1H-pyrazolo[3,4-d]pyrimidin-3-yl)phenyl)-3-(4-(perfluoroethyl)phenyl)urea]
cellular IC50 against RET, ranking in words [3]: lowest IC50 values among the para-substituted compounds tested | ranking by inhibition of cell proliferation, BC model [2]: top ten | rescue activity in the fly model, in words [5]: exceptional in vivo activity | rescue (percent viability of adult flies, adults/pupae×100) ([5]; baseline viability 0%): 100%

CC(C)n1cc(-c2ccc(NC(=O)Nc3cccc(C(F)(F)C(F)(F)C(F)(F)F)c3)cc2)c2c(N)ncnc21.O=C(O)C(F)(F)F [APS-7-52-2, 1-(4-(4-Amino-7-isopropyl-7H-pyrrolo[2,3-d]pyrimidin-5-yl)phenyl)-3-(3-(perfluoropropyl)phenyl)urea 2,2,2-trifluoroacetate]
ranking by inhibition of cell proliferation, SR model [1]: top ten

CC(C)n1nc(-c2ccc(NC(=O)Nc3cccc(C(F)(F)C(F)(F)C(F)(F)C(F)(F)F)c3)cc2)c2c(N)ncnc21 [APS-7-46-2, 1-(4-(4-Amino-1-isopropyl-1H-pyrazolo[3,4-d]pyrimidin-3-yl)phenyl)-3-(3-(perfluorobutyl)phenyl)urea]
rescue (percent viability of adult flies, adults/pupae×100) ([5]; baseline viability 0%): over 80%

COc1ccc(CN2C3CC2CN(c2ccc(-c4cc(OCC(C)(C)O)cn5ncc(C#N)c45)cn2)C3)cn1 [Loxo292, reference compound]
cellular IC50 wild-type RET versus M918T mutant, in words [3]: slightly lower IC50 values towards wild-type RET over the M918T mutant

CNC(=O)c1cc(Oc2ccc(NC(=O)Nc3ccc(C(C)(F)C(C)(C)C)cc3)cc2)ccn1 (stereo not drawn) [compound 44]
rescue (percent viability of adult flies, adults/pupae×100) ([5]; baseline viability 0%): 55%
